Experimental data: patent US7018996B2, “Antibiotics AW998A, AW998B, AW998C and AW998D” (Wyeth Holdings Corporation, priority 2002, dated 2006)
≈ marks a conversion by molar mass, not a printed value. Where two headings read alike, the source gives them in different places. Bridge positions count the residues as written; N and C are the ends. Square brackets hold non-standard residues; d marks the D form. Peptide text beside a SMILES is read from it. * marks the point of attachment. Tetradecenoyl(2E,13-Me) = CC(C)CCCCCCCCC/C=C/C(=O)*; X1 = CC(C)CCCCCCCC/C=C/C(=O)*; Pip = O=C(O)[CH]1CCCCN1; Dap = NC[CH](N)C(=O)O

Key:
Assay type in all cases: cell-based
[1] = system: E. faecalis GC 4555 (ATCC); experiment: MIC, broth dilution, E. faecalis GC 4555 (ATCC); conditions: Enterococcus faecalis, 18 hours at 35° C., read-out: Antimicrobial Activity (MIC)
Protocol: (§1) The minimum inhibitory concentration (MIC), the lowest concentration of the antibiotic which inhibits growth of the test organism, is determined by the broth dilution method using Muller-Hinton II […] (Baltimore Biological Laboratories) following the recommendations of the National Committee for Clinical Laboratory Standards [Methods for dilution antimicrobial susceptibility tests for bacteria that grow aerobically, approved standard M7-A2, National Committee for Clinical Laboratory Standards, Villanova, Pa.].
(§2) An inoculum level of 5×10^5 CFU/mL, and a range of antibiotic concentrations (64–0.06 μg/mL) is used. The MIC is determined after the microtiter plates are incubated for 18 hours at 35° C. in an ambient air incubator. The test organisms include a spectrum of Gram-positive bacteria comprised of Staphylococcus sp., Streptococcus sp. and Enterococcus sp.
(§3) The in vitro antibacterial activity of AW998A, AW998B, AW998C and AW998D is determined against a spectrum of Gram-positive and Gram-negative bacteria by a standard broth dilution method. Serial dilution of the compounds are made in Mueller-Hinton broth and inoculated with a bacterial suspension. The lowest concentration of compound that inhibited the growth of a bacterial strain after 18 hours of incubation at 35° C. is reported as the minimal inhibitory concentration (MIC) for that strain.

S. aureus GC 1131 (MRSA) = experiment: MIC, broth dilution, S. aureus GC 1131 (MRSA); conditions: Staphylococcus aureus, 18 hours at 35° C., read-out: Antimicrobial Activity (MIC)
Protocol: as §1, §2, §3

[2] = system: B. subtilis GC 6344 (168); experiment: MIC, broth dilution, B. subtilis GC 6344 (168); conditions: Bacillus subtilis, 18 hours at 35° C., read-out: Antimicrobial Activity (MIC)
Protocol: as §1, §2, §3

S. aureus GC 2216 (ATCC) = experiment: MIC, broth dilution, S. aureus GC 2216 (ATCC); conditions: Staphylococcus aureus, 18 hours at 35° C., read-out: Antimicrobial Activity (MIC)
Protocol: as §1, §2, §3

[3] = system: H. influenzae GC 6896 <> (ATTC); experiment: MIC, broth dilution, H. influenzae GC 6896 (ATTC); conditions: Haemophilus influenzae, read-out: Antimicrobial Activity (MIC)
Protocol: as §1, §2
(§4) The test organisms also include a spectrum of Gram-negative bacteria comprised of E. coli GC, M. catarrhalis and H. influenzae.
as §3

S. pneumoniae GC 1894 = experiment: MIC, broth dilution, S. pneumoniae GC 1894; conditions: Streptococcus pneumoniae, GC1894, 18 h, 18 hours at 35° C., read-out: Antimicrobial Activity (MIC)
Protocol: as §1, §2, §3

E.coil GC 4560 (imp) = experiment: MIC, broth dilution, E.coil GC 4560 (imp); conditions: Escherichia coli, 18 h, read-out: Antimicrobial Activity (MIC)
Protocol: as §1, §2, §4, §3

[4] = system: S. aureus GC 4543 (Smith); experiment: MIC, broth dilution, S. aureus GC 4543 (Smith); conditions: Staphylococcus aureus, 18 hours at 35° C., read-out: Antimicrobial Activity (MIC)
Protocol: as §1, §2, §3

[5] = system: C. albicans GC 3066 (Yeast); experiment: MIC, broth dilution, C. albicans GC 3066 (Yeast); conditions: Candida albicans, read-out: Antimicrobial Activity (MIC)
E. coli GC 4559 (wt) = experiment: MIC, broth dilution, E. coli GC 4559 (wt); conditions: Escherichia coli, read-out: Antimicrobial Activity (MIC)
Protocol: as §1, §2, §4, §3

[6] = system: M. catarrhalis GC 6907* (clinical); experiment: MIC, broth dilution, M. catarrhalis GC 6907 (clinical); conditions: Moraxella catarrhalis, read-out: Antimicrobial Activity (MIC)
Protocol: as §1, §2, §4, §3

[7] = system: E. faecalis GC 2242 (VRE); experiment: MIC, broth dilution, E. faecalis GC 2242 (VRE); conditions: Enterococcus faecalis, 18 hours at 35° C., read-out: Antimicrobial Activity (MIC)
Protocol: as §1, §2, §3

[8] = S. pneumoniae GC 1894* (5% LHB)

SMILES | MIC [1] | MIC (S. aureus GC 1131 (MRSA)) | MIC [2] | MIC (S. aureus GC 2216 (ATCC)) | MIC ([3]; H. influenzae GC 6896 <> (ATTC), 18 hours at 35° C.) | MIC (S. pneumoniae GC 1894; [8]) | MIC (S. pneumoniae GC 1894; S. pneumoniae GC 1894+ (THY)) | MIC (E.coil GC 4560 (imp)) | MIC [4] | MIC ([5]; C. albicans GC 3066 (Yeast), 18 hours at 35° C.) | MIC (E. coli GC 4559 (wt); E. coli GC 4559 (wt), 18 hours at 35° C.) | MIC ([6]; M. catarrhalis GC 6907* (clinical), 18 hours at 35° C.) | MIC [7] | MIC ([3]; 18 h) | MIC ([5]; 18 h) | MIC (E. coli GC 4559 (wt); 18 h) | MIC ([6]; 18 h)
CCC(C)C1NC(=O)C(C(C)O)NC(=O)CNC(=O)C(CC(=O)O)NC(=O)CNC(=O)C(CC(=O)O)NC(=O)CNC(=O)C2CCCCN2C(=O)C(NC(=O)C(CC(=O)O)NC(=O)/C=C/CCCCCCCCCC(C)C)CNC(=O)C2CCCN2C1=O (stereo not drawn) [AW998A] ({Tetradecenoyl(2E,13-Me)}-D[Dap][Pip]GDGDGTIP; lactam 2-C; configuration not given here) | 32 µg/mL (≈ 25.7 µM) | 16 µg/mL (≈ 12.8 µM) | 32 µg/mL (≈ 25.7 µM) | 8 µg/mL (≈ 6.41 µM) | > 128 µg/mL | 4 µg/mL (≈ 3.21 µM) | 2 µg/mL (≈ 1.6 µM) | 32 µg/mL (≈ 25.7 µM) | 8 µg/mL (≈ 6.41 µM) | 128 µg/mL (≈ 103 µM) | > 128 µg/mL | > 128 µg/mL | 64 µg/mL (≈ 51.3 µM) |  |  |  | 
CCC(C)C1NC(=O)C(C(C)O)NC(=O)CNC(=O)C(CC(=O)O)NC(=O)CNC(=O)C(CC(=O)O)NC(=O)CNC(=O)C2CCCCN2C(=O)C(NC(=O)C(CC(=O)O)NC(=O)/C=C/CCCCCCCCC(C)C)CNC(=O)C2CCCN2C1=O (stereo not drawn) [AW998C] (X1-D[Dap][Pip]GDGDGTIP; lactam 2-C; configuration not given here) | 128 µg/mL (≈ 104 µM) | 128 µg/mL (≈ 104 µM) | 128 µg/mL (≈ 104 µM) | 64 µg/mL (≈ 51.9 µM) |  | 8 µg/mL (≈ 6.49 µM) | 64 µg/mL (≈ 51.9 µM) | > 128 µg/mL | 64 µg/mL (≈ 51.9 µM) |  |  |  | 128 µg/mL (≈ 104 µM) | > 128 µg/mL | > 128 µg/mL | > 128 µg/mL | > 128 µg/mL
CC(C)CCCCCCCCC/C=C/C(=O)NC(CC(=O)O)C(=O)NC1CNC(=O)C2CCCN2C(=O)C(C(C)C)NC(=O)C(C(C)O)NC(=O)CNC(=O)C(CC(=O)O)NC(=O)CNC(=O)C(CC(=O)O)NC(=O)CNC(=O)C2CCCCN2C1=O (stereo not drawn) [AW998D] ({Tetradecenoyl(2E,13-Me)}-D[Dap][Pip]GDGDGTVP; lactam 2-C; configuration not given here) | 128 µg/mL (≈ 104 µM) | 128 µg/mL (≈ 104 µM) | 128 µg/mL (≈ 104 µM) | 128 µg/mL (≈ 104 µM) |  | 16 µg/mL (≈ 13 µM) | 128 µg/mL (≈ 104 µM) | > 128 µg/mL | 128 µg/mL (≈ 104 µM) |  |  |  | 128 µg/mL (≈ 104 µM) | > 128 µg/mL | > 128 µg/mL | > 128 µg/mL | > 128 µg/mL
